According to patent US20250282714A1, “COMPOSITIONS FOR AND METHODS OF MODULATING RNA STABILITY” (Duke University, priority 2022, published 2025):
“And” between values parts separate entries of the source, which are not always exact repeats. Equal entries are not always repeated. “Also recorded” adds a separate entry of the source.

Key:
MALAT1 triple helix [1] = assay: RiboGreen indicator displacement assay (IDA); type: binding, human; settings: for affinity for the MALAT1 triple helix (in words): RiboGreen IDA
Description: The protocol was adapted from a previously reported procedure. (Donlic A, et al. (2020) Nucleic Acids Res. 48(14):7653-7664). A serial dilution of the MALAT1 triple helix RNA was performed in HEPES buffer (20 mM HEPES-KOH, 52.6 mM KCl, 0.1 mM MgCl2, pH=7.4) in a 96 well plate in triplicate. […] of each dilution were transferred to a 384 well plate followed by […] of a 500 nM solution of RiboGreen dye in the same buffer (Invitrogen™). The plates were excited at 487 nm (8 nm slit) and emission was recorded at 530 nm (8 nm slit, focal height 11.3 mm) using a CLARIOstar plate reader (BMG labtech). The affinity of the dye for the RNA construct was determined by fitting the raw fluorescence in GraphPad Prism version 8.3.1 for Macintosh (GraphPad Software, La Jolla California USA, (www.graphpad.com)) by fitting to the Log[Agonist] vs. response—variable slope model that using Equation (1) below.
where Y is normalized % change in fluorescence intensity, X is RNA concentration, Bottom is lowest fluorescence % change and Top is highest fluorescence % change. Affinity of the dye for the RNA construct was used as the ideal RNA concentration (174 nM) for small molecule titrations.
A serial dilution of small molecule (0, 0.5 μM, 1.0 μM, 2.5 μM, 5 μM, 7.5 μM, 10.0 μM, 12.5 μM, 25 μM, 50 µM, 75 μM, 100 μM, 125 μM, 150 μM, 250 μM, 500 µM) was performed in HEPES buffer (20 mM HEPES-KOH, 52.6 mM KCl, 0.1 mM MgCl2, pH=7.4) in a 96 well plate in triplicate. Then, 8 μL of each dilution were transferred to a 384 well plate, followed by 8 μL of a 174 nM solution of MALAT1 RNA and […] of RiboGreen™ (Invitrogen™). The RNA was previously annealed by heating to 95° C. for 5 minutes and cooling to 0° C. on ice for 30 minutes. The 384 well plates were shaken for 5 minutes, centrifuged at 4000 rpm for 1 minute, and incubated in the dark for 20 minutes. The plates were excited at 487 nm (8 nm slit) and emission was read at 525 nm (8 nm slit, focal height […]) using a CLARIOstar plate reader (BMG Labtech). Percent fluorescence indicator displacement (% FID) was calculated by subtracting and, subsequently, dividing by the blank wells with RNA-dye complex and no small molecule as shown in Equation (2).
Where Fo is the fluorescence of the blank well with RNA+dye and no small molecule and F is the fluorescence of the well with all three components (RNA+dye+small molecule).
Each technical triplicate was averaged, and the resulting FID values were averaged between three independent experiments. The binding curve and Log (CD50) value was obtained by using a non-linear fit curve (Log[Agonist] vs. response) with variable slope at four parameters (GraphPad Prism Software version for Macintosh 8.3.1, La Jolla, California, USA (www.graphpadprism.com)) as shown in Equation 1. Reported values are averages of three independent experiments=standard deviation.
Given the structural differences between secondary and tertiary structures, where more continuous and complex base-pairing occurs, the design and optimization of an RNA triple helix IDA amenable to HTS was the first focused on. The utility of RiboGreen™ dye was confirmed as an indicator. The RiboGreen™ structure is proprietary, and stoichiometry is thus unconfirmed. Upon assay optimization, the 21-member library was screened using a 16-point titration in three independent replicates (FIG. 2A, FIG. 12A-FIG. 12U).

MALAT1 triple helix [2] = assay: Differential scanning fluorimetry (DSF), thermal stability; type: binding, human; settings: for effect on MALAT1 triplex thermal stability (in words): DSF
Description: Differential scanning fluorimetry experiments were performed as previously reported. (Donlic A, et al. (2020) Nucleic Acids Res. 48(14):7653-7664). All experiments were performed in white 96 well plates in a LightCycler® 96 (Roche). In a typical experiment, 4 μM of RNA was annealed in the same buffer used for indicator displacement assays (20 mM HEPES-KOH, 52.6 mM KCl, 0.1 mM MgCl2, pH=7.4) by heating at 95° C. for 3 minutes, snap-cooling on ice for 10 minutes, and leaving the solution at room temperature for 1 hr. Then, 42 μL of this solution was aliquoted to wells and 5 μM of ligand was added (2.5 μL of water, 2.0 μL of DMSO, 0.5 μL of 500 μM small molecule stock). The mixture was left to incubate at room temperature for 5 minutes, after which 3 μL of a 20 μM Quant-iT™ RiboGreen™ (ThermoFisher Scientific) dye stock solution in appropriate buffer was added to each well. The 96 well plate was then sealed with an optically clear foil and centrifuged for 1 minute at 4000 rpm prior to being placed in the instrument. The light cycler program was created by selecting the melting curve method; fluorescence intensity was monitored using the SYBR Green I/HRM dye filter combination (465-510 nm) from 37-98° C. at a ramp rate of 0.01° C./second with 150 acquisitions per° C. Melting profiles were obtained by Tm analysis in the LightCycler® 96 software (SW 1.1).
The MALAT1 triple helix is known to confer stability to the full-length transcript and protect it from RNase-mediated degradation, ultimately resulting in transcript accumulation and aggregation in nuclear speckles. (Brown J A, (2020) WIREs RNA. 11(6):e1598; Wilusz J E, et al. (2012) Genes Dev. 26(21):2392-2407; Brown J A, et al. (2014) Nat Struct Mol Biol. 21(7):633-640; Tycowski K T, et al. (2016) Cell Rep. 15(6):1266-1276). To better understand how the diminazene focused library affects the MALAT1 triplex stability, the entire library was evaluated via differential scanning fluorimetry (DSF) (FIG. 5A). This method allows for rapid assessment of small molecule effects on nucleic acid thermal stability (Silvers R, et al. (2015) Chembiochem. 16(7):1109-1114) in a 96-well plate format, substantially reducing the time and cost associated with traditional UV-melting experiments.
The bi-phasic melting profile distinctive of triple helices is attributed to an initial melting of the Hoogsteen triple base pairs followed by dissociation of Watson-Crick-Franklin base pairs (FIG. 16A-FIG. 16E). (Pilch D S, et al. (1995) Biochemistry. 34(49):16107-16124). At an equimolar ratio of RNA:small molecule, a range of thermal stabilization of the first (Tm1) was observed, but not the second (Tm2) melting peak (FIG. 5A, FIG. 13A-FIG. 13Z). At increasing small molecule concentration, a dose-dependent increase in ΔTm1 but not in ΔTm2 was observed, indicating small molecule interactions in the triplex region and not in the upper stem region (FIG. 15).

MALAT1 triple helix [3] = assay: RNase A enzymatic degradation assay; type: biochemical, human; settings: for stabilizing / destabilizing compound (as listed 'in an aspect'): stabilizing = less, destabilizing = more degradation in an enzymatic assay than control
Description: The procedure was adapted from a published protocol for exonucleolytic enzymatic degradation assay. (Donlic A, et al. (2020) Nucleic Acids Res. 48(14):7653-7664). The MALAT1 destabilizing small molecules published by Le Grice (Abulwerdi F A, et al. (2019) ACS Chem Biol. 14(2):223-235) and co-workers SM5 and SM16 were purchased from ChemBridge. For a typical 70 μL reaction, […] of MALAT1 triple helix RNA was annealed in the same buffer used for IDA and DSF experiments (20 mM HEPES-KOH, 52 mM KCl, 0.1 mM MgCl2, pH=7.4) by heating at 95° C. for 3 minutes, snap-cooling on ice for 10 minutes, and leaving the solution at room temperature for 1 hr.
RNase A enzyme (ThermoFisher) was diluted to 1.46 nM and incubated with 1 M NaCl for 30-35 minutes to achieve ssRNA selectivity as reported. (Struhl K, et al. (1989) Current Protocols in Molecular Biology. 8(1):3.13.1-3.13.3). Next, the RNA was mixed with 0.2 μM of a GC-rich DNA duplex, […] of small molecule/DMSO and incubated at room temperature for 20 minutes. Following the incubation, […] of RNase A was added, and the reaction was incubated at 37° C. for 1 hour in a thermal cycler with a heated lid (Eppendorf). 4 μL timepoint aliquots were taken at 0, 5, 10, 30, and 60 minutes, 4 μL of 2×RNA loading dye was added to each aliquot (ThermoFischer Scientific), and samples were stored at −80° C. prior to gel analysis. Reactions were analyzed on pre-cast 15% PAGE-Urea gels (Invitrogen) in 1×TBE buffer. Aliquots were thawed from −80° C. storage and heated to 95° C. for 15 minutes prior to gel loading and […] were loaded in each well. Gels were run for 45 minutes at 180 V, stained with Diamond™ Nucleic Acid dye (Promega), and visualized on an iBright 500 (ThermoFisher). DMSO controls were ran with every set of 4 small molecules to ensure consistency of enzyme activity and RNA integrity. Gel band intensity of the MALAT1 triple helix and DNA loading control were quantified using ImageJ software. (Rueden C T, et al. (2017) BMC Bioinformatics. 18(1):529).
To quantify time-dependent endonucleolytic degradation for each sample, the intensity was normalized using Equation (3), and fold-difference was calculated as listed in Equation (4) as previously reported. (Donlic A, et al. (2020) Nucleic Acids Res. 48(14):7653-7664).
where y is normalized RNA area for a specific time point and the sample (tx), TH (triple helix). Area is the raw band intensity for the RNA in the lane corresponding to time point x for that sample, LC (loading control). Area (t0) is the raw band intensity for the DNA in the lane corresponding to the 0 minute time point for the sample, and LC Area (tx) is the raw band intensity for the DNA in the lane corresponding to time point x for that sample.
where y is fold-difference of the exonucleolytic degradation for the specific sample, with normalized areas for its specific time point x and time point 0 calculated as described in Equation (3). Percent RNA degraded was calculated for every time point using Equation (5).
% RNA degraded=(Normalized area (t0)−Normalized area (tx))*100 (Equation 5)
Experimental results shown in FIG. 6C are plotted as three independent replicates and standard deviation between replicates as error bars. Relative fold change between treated condition and DMSO was calculated from Equation (6).
The library was screened using a more biologically relevant in vitro enzymatic degradation assay. Previous work evaluated the effect on triplex degradation of various ionic buffer conditions (Ageeli A A, et al. (2018) Nucleic Acids Res. 47(3):1468-1481) and a sub-set of DPF small molecules (Donlic A, et al. (2020) Nucleic Acids Res. 48(14):7653-7664) using E. coli RNase R exonuclease as it degrades from 3′ to 5′, reporting on the availability of the poly(A) tail normally sequestered in the triplex construct. […]

[4] = 5-minute time point, relative to DMSO control

Compound	effect on MALAT1 triplex thermal stability (in words) (MALAT1 triple helix [2])	affinity for the MALAT1 triple helix (in words) (MALAT1 triple helix [1])	stabilizer / destabilizer classification by RNase A degradation (MALAT1 triple helix [3]; [4])	other results
N=C(NCc1ccc(Cl)cc1)c1ccc(/N=N/Nc2ccc(C(=N)NCc3ccc(Cl)cc3)cc2)cc1 [DMZ-P5]	–	–	–	fold higher affinity, para scaffold versus ortho scaffold (MALAT1 triple helix [1]; subunit R-5: DMZ-P5 versus DMZ-O5): 13 fold
N=C(NCc1ccco1)c1cccc(/N=N/Nc2cccc(C(=N)NCc3ccco3)c2)c1 [DMZ-M15]	negligible thermal stabilization	moderate affinity	–	–
CCCCNC(=N)c1ccc(/N=N/Nc2ccc(C(=N)NCCCC)cc2)cc1 [DMZ-P17]	negligible thermal stabilization	moderate affinity	–	–
N=C(NCCc1cccnc1)c1cccc(/N=N/Nc2cccc(C(=N)NCCc3cccnc3)c2)c1 [DMZ-M3]	negligible thermal stabilization	moderate affinity	–	–
CN(C)c1ccc(CN2CCC(CCNC(=N)c3ccc(/N=N/N(C)c4ccc(C(=N)NCCC5CCN(Cc6ccc(N(C)C)cc6)CC5)cc4)cc3)CC2)cc1 [DMZ-NMe-P38]	–	–	–	stabilizing / destabilizing compound (as listed 'in an aspect') (MALAT1 triple helix [3]): destabilizing
N=C(NCc1ccccc1)c1cccc(/N=N/Nc2cccc(C(=N)NCc3ccccc3)c2)c1 [DMZ-M4]	increases in thermal stability; also recorded: mediocre	mediocre affinity	destabilizers	increase of the amount of MALAT1 degraded at 5 minutes (MALAT1 triple helix [3]; [4]): 2 fold and > 2 fold
N=C(N)c1ccc(/N=N/Nc2ccc(C(=N)N)cc2)cc1 [DMZ-P0, diminazene, reference compound]	increases in thermal stability	–	destabilizers	–
CN(/N=N/c1ccc(C(=N)NCCC2CCN(Cc3ccccc3)CC2)nc1)c1ccc(C(=N)NCCC2CCN(CC3C=CC=CC3)CC2)nc1 (stereo not shown) [DMZ-NMe-mPy-P1]	–	–	–	stabilizing / destabilizing compound (as listed 'in an aspect') (MALAT1 triple helix [3]): destabilizing
N=C(NCc1ccc(Cl)cc1)c1ccccc1/N=N/Nc1ccccc1C(=N)NCc1ccc(Cl)cc1 [DMZ-O5]	–	–	much stronger destabilizing effect	stabilizing / destabilizing compound (as listed 'in an aspect') (MALAT1 triple helix [3]): stabilizing; also recorded: destabilizing
N=C(NCc1ccccc1)c1ccccc1/N=N/Nc1ccccc1C(=N)NCc1ccccc1 [DMZ-O4]	–	no affinity	–	–
CN(C)CCCNC(=N)c1ccc(/N=N/Nc2ccc(C(=N)NCCCN(C)C)cc2)cc1 [DMZ-P1]	increases in thermal stability	–	destabilizers	effect on Tm1 (ΔTm1, first melting peak) (MALAT1 triple helix [2]; equimolar RNA:small molecule, versus DMSO vehicle): approximately 6.1 °C; strength class of stabilizer / destabilizer (change in degradation) (MALAT1 triple helix [3]; [4]): weak destabilizer (weak destabilizer (<50% increase in degradation))
